Assay results from PubChem BioAssay AID1259407 (Chemical Carcinogenesis Research Information System (CCRIS), 2018).
The source made the active and inactive calls. No rule for the calls is given here.

Test system: CCRIS mutagenicity, Ames/micronucleus/aberration tests
Assay: CCRIS mutagenicity studies
[1] = Test System: AMES SALMONELLA TYPHIMURIUM, Strain/Indicator: TA97, Metabolic Activation: NONE, Method: PREINCUBATION
[2] = Test System: AMES SALMONELLA TYPHIMURIUM, Strain/Indicator: TA98, Metabolic Activation: NONE, Method: PREINCUBATION
[3] = Test System: AMES SALMONELLA TYPHIMURIUM, Strain/Indicator: TA100, Metabolic Activation: NONE, Method: PREINCUBATION
[4] = Test System: AMES SALMONELLA TYPHIMURIUM, Strain/Indicator: TA1535, Metabolic Activation: NONE, Method: PREINCUBATION

O=CNc1ccccc1 was tested, and the mutagenic call (Test System: AMES SALMONELLA TYPHIMURIUM, Strain/Indicator: TA97, Metabolic Activation: HAMSTER, LIVER, S-9, AROCLOR 1254 (10 OR 30%), Method: PREINCUBATION) was “inactive; negative”, the mutagenic call [1] was “inactive; negative” and the mutagenic call (Test System: AMES SALMONELLA TYPHIMURIUM, Strain/Indicator: TA97, Metabolic Activation: RAT, LIVER, S-9, AROCLOR 1254 (10 OR 30%), Method: PREINCUBATION) was “inactive; negative”. For the same compound, the mutagenic call (Test System: AMES SALMONELLA TYPHIMURIUM, Strain/Indicator: TA98, Metabolic Activation: HAMSTER, LIVER, S-9, AROCLOR 1254 (10 OR 30%), Method: PREINCUBATION) was “inactive; negative”, the mutagenic call [2] was “inactive; negative” and the mutagenic call (Test System: AMES SALMONELLA TYPHIMURIUM, Strain/Indicator: TA98, Metabolic Activation: RAT, LIVER, S-9, AROCLOR 1254 (10 OR 30%), Method: PREINCUBATION) was “inactive; negative”. The mutagenic call (Test System: AMES SALMONELLA TYPHIMURIUM, Strain/Indicator: TA100, Metabolic Activation: HAMSTER, LIVER, S-9, AROCLOR 1254 (10 OR 30%), Method: PREINCUBATION) was “inactive; negative”, the mutagenic call [3] was “inactive; negative” and the mutagenic call (Test System: AMES SALMONELLA TYPHIMURIUM, Strain/Indicator: TA100, Metabolic Activation: RAT, LIVER, S-9, AROCLOR 1254 (10 OR 30%), Method: PREINCUBATION) was “inactive; negative”. The mutagenic call (Test System: AMES SALMONELLA TYPHIMURIUM, Strain/Indicator: TA1535, Metabolic Activation: HAMSTER, LIVER, S-9, AROCLOR 1254 (10 OR 30%), Method: PREINCUBATION) was “inactive; negative”, the mutagenic call [4] was “inactive; negative” and the mutagenic call (Test System: AMES SALMONELLA TYPHIMURIUM, Strain/Indicator: TA1535, Metabolic Activation: RAT, LIVER, S-9, AROCLOR 1254 (10 OR 30%), Method: PREINCUBATION) was “inactive; negative”.

C1=C\CC/C=C\CC/1.C1=C\CC/C=C\CC/1.[Ni] was tested, and the mutagenic call (Test System: AMES SALMONELLA TYPHIMURIUM, Strain/Indicator: TA97, Metabolic Activation: HAMSTER, LIVER, S-9, AROCLOR 1254 (10%), Method: PREINCUBATION) was “inactive; negative”, the mutagenic call (Test System: AMES SALMONELLA TYPHIMURIUM, Strain/Indicator: TA97, Metabolic Activation: HAMSTER, LIVER, S-9, AROCLOR 1254 (30%), Method: PREINCUBATION) was “inactive; negative” and the mutagenic call [1] was “inactive; negative”. The mutagenic call (Test System: AMES SALMONELLA TYPHIMURIUM, Strain/Indicator: TA97, Metabolic Activation: RAT, LIVER, S-9, AROCLOR 1254 (10%), Method: PREINCUBATION) was “inactive; negative”, the mutagenic call (Test System: AMES SALMONELLA TYPHIMURIUM, Strain/Indicator: TA97, Metabolic Activation: RAT, LIVER, S-9, AROCLOR 1254 (30%), Method: PREINCUBATION) was “inactive; negative” and the mutagenic call (Test System: AMES SALMONELLA TYPHIMURIUM, Strain/Indicator: TA98, Metabolic Activation: HAMSTER, LIVER, S-9, AROCLOR 1254 (10%), Method: PREINCUBATION) was “inactive; negative”. For the same compound, the mutagenic call [2] was “inactive; negative”, the mutagenic call (Test System: AMES SALMONELLA TYPHIMURIUM, Strain/Indicator: TA98, Metabolic Activation: RAT, LIVER, S-9, AROCLOR 1254 (10%), Method: PREINCUBATION) was “inactive; negative” and the mutagenic call (Test System: AMES SALMONELLA TYPHIMURIUM, Strain/Indicator: TA100, Metabolic Activation: HAMSTER, LIVER, S-9, AROCLOR 1254 (10%), Method: PREINCUBATION) was “inactive; negative”. The mutagenic call (Test System: AMES SALMONELLA TYPHIMURIUM, Strain/Indicator: TA100, Metabolic Activation: HAMSTER, LIVER, S-9, AROCLOR 1254 (30%), Method: PREINCUBATION) was “inactive; negative”, the mutagenic call [3] was “inactive; negative” and the mutagenic call (Test System: AMES SALMONELLA TYPHIMURIUM, Strain/Indicator: TA100, Metabolic Activation: RAT, LIVER, S-9, AROCLOR 1254 (10%), Method: PREINCUBATION) was “active; positive”. For the same compound, the mutagenic call (Test System: AMES SALMONELLA TYPHIMURIUM, Strain/Indicator: TA100, Metabolic Activation: RAT, LIVER, S-9, AROCLOR 1254 (30%), Method: PREINCUBATION) was “inactive; negative”, the mutagenic call (Test System: AMES SALMONELLA TYPHIMURIUM, Strain/Indicator: TA1535, Metabolic Activation: HAMSTER, LIVER, S-9, AROCLOR 1254 (10%), Method: PREINCUBATION) was “inactive; negative” and the mutagenic call [4] was “inactive; negative”. For the same compound, the mutagenic call (Test System: AMES SALMONELLA TYPHIMURIUM, Strain/Indicator: TA1535, Metabolic Activation: RAT, LIVER, S-9, AROCLOR 1254 (10%), Method: PREINCUBATION) was “inactive; negative”, the mutagenic call (Test System: Ames Salmonella typhimurium, Strain/Indicator: TA100, Metabolic Activation: None, Method: Preincubation) was “inactive; negative” and the mutagenic call (Test System: Ames Salmonella typhimurium, Strain/Indicator: TA100, Metabolic Activation: Rat, Liver, S9, Phenobarbital and 5,6-benzoflavone, Method: Preincubation) was “inactive; negative”. For the same compound, the mutagenic call (Test System: Ames Salmonella typhimurium, Strain/Indicator: TA102, Metabolic Activation: None, Method: Preincubation) was “inactive; negative” and the mutagenic call (Test System: Ames Salmonella typhimurium, Strain/Indicator: TA102, Metabolic Activation: Rat, Liver, S9, Phenobarbital and 5,6-benzoflavone, Method: Preincubation) was “inactive; negative”.

For [Ru], the mutagenic call (End Point: In vitro chromosomal aberrations, Test System: Human lymphocytes, Metabolic Activation: None) was “inactive; negative. actual compound tested was cis(dichloro)tetraammonium ruthenium(iii)ch”.

For CC(C)(C)Cl, the mutagenic call (Test System: Mouse lymphoma, Strain/Indicator: L5178Y (tk+/tk-), Metabolic Activation: None, Method: Suspension/plate) was “inactive; negative” and the mutagenic call (Test System: Mouse lymphoma, Strain/Indicator: L5178Y (tk+/tk-), Metabolic Activation: Rat, Liver, S-9, Aroclor 1254, Method: Suspension/plate) was “inactive; negative”.

O=C(Cl)c1ccccc1Cl was tested, and the mutagenic call [2] was “inactive; negative”, the mutagenic call (Test System: AMES SALMONELLA TYPHIMURIUM, Strain/Indicator: TA98, Metabolic Activation: RAT LIVER S-9, PCB, Method: PREINCUBATION) was “active; positive” and the mutagenic call [3] was “active; positive”. For the same compound, the mutagenic call (Test System: AMES SALMONELLA TYPHIMURIUM, Strain/Indicator: TA100, Metabolic Activation: RAT LIVER S-9, PCB, Method: PREINCUBATION) was “active; positive”, the mutagenic call (Test System: AMES SALMONELLA TYPHIMURIUM, Strain/Indicator: TA104, Metabolic Activation: NONE, Method: PREINCUBATION) was “active; positive” and the mutagenic call (Test System: AMES SALMONELLA TYPHIMURIUM, Strain/Indicator: TA104, Metabolic Activation: RAT LIVER S-9 PCB, Method: PREINCUBATION) was “active; positive”. For the same compound, the mutagenic call (Test System: E.COLI, Strain/Indicator: WP2 UVRA, Metabolic Activation: NONE, Method: PREINCUBATION) was “inactive; negative” and the mutagenic call (Test System: E.COLI, Strain/Indicator: WP2 UVRA, Metabolic Activation: RAT LIVER S-9, PCB, Method: PREINCUBATION) was “active; positive”.

In the case of COc1ccc(CNC(=O)C(C)Br)cc1OC (centres undefined), the mutagenic call (Test System: AMES SALMONELLA TYPHIMURIUM, Strain/Indicator: TA100, Metabolic Activation: NONE, Method: STANDARD PLATE) is reported as “active; positive”.
